In US6734318B2, “Fluorous triphase and other multiphase systems” (University of Pittsburgh, priority 2001, dated 2004):
Read-outs that look alike come from different tables or passages of the source. Marks after values point to notes of the source that are not given here. Blank lines part the entries; values can stand above or below the compound they belong to.

How the values were obtained:
[1] = between FC-72 and MeOH
[2] = Transfer of organic compounds between two MeCN phases through an FC-72 phase (U-tube); format: physicochemical; settings: two MeCN phases through FC-72, 23° C., 3 days
[3] = Transfer of 2a between two organic phases through an FC-72 phase (U-tube); format: physicochemical; settings: FC-72 stirred 23° C., 3 days
Description: 2-(2-Naphtylethanol) 2a (10 mg) was dissolved in an organic solvent (1 ml) and the mixture was put into one side (side A) of U-tube 10 of FIG. 1, in which FC-72 (10 ml) was placed. The other organic solvent was put into the other side (side B) of U-tube 10 and the center phase (FC-72) was stirred (via, for example, magnetic stirring element 130) at 23° C. for 3 days without mixing the interfaces between the organic and FC-72 layers. The weights of each organic phase were measured after evaporation.

[4] = Selective transport of a fluorous-tagged component of a mixture through FC-72 between two acetonitrile phases; format: physicochemical
[5] = U-tube transport of guest molecules from aqueous S-phase through FC-72 F-phase to basic aqueous P-phase, with or without fluorous transport agent 3b; format: physicochemical; settings: transport agent 3b about 1 mM in FC-72; S-phase water, P-phase pH 11.5 phosphate buffer; ambient temperature
Description: In an illustrative example, several transport experiments were carried out with a variety of guest molecules and fluorous transport agent 3b. The F-phase included transport agent 3b, at about 1 mM in the fluorous solvent FC-72. This F-phase was contacted in a U-tube with a first phase containing various organic compounds in water and a second aqueous phase containing hydroxide ion (pH 11.5 phosphate buffer). After various periods of time at ambient temperature, a portion of the more basic, P-phase was removed and subjected to quantitative analysis by UV absorbance spectrophotometry. The measured absorbances were converted to the concentration of each organic compound by the use of a calibration curve. The organic solutes tested were phenobarbital, secobarbital, mephobarbital, thiopental, 2-ethyl, 2-phenylmalonamide, and p-toluenesulfonate. […] The amount of each compound transported (as a fraction of the amount in the S-phase) is plotted versus time. The data points represent behavior of mephobarbital (represented by solid squares), secobarbital (represented by open squares), thiopental (represented by triangles), phenobarbital (represented by diamonds), malonamide and p-toluenesulfonate (both represented by open circles). Each of the barbiturates was transported through the fluorous phase in the presence of transport agent 3b. […]

Compound: CC(C)[Si](CCC(F)(F)C(F)(F)C(F)(F)C(F)(F)C(F)(F)C(F)(F)C(F)(F)C(F)(F)F)(O[C@@H](C)c1ccc2ccccc2c1)C(C)C [1f, diisopropyl-1H,1H,2H,2H-perfluorodecanylsilyl (S)-(−)-1-(2-naphthyl)ethyl ether]
Kp (partition coefficient) [1]: 1.5

ratio (A/B) [2]: 96/4
Compound: CC(O)c1ccc2ccccc2c1 (stereo not shown) [1-(2-naphthyl)ethanol]

ratio (A/B) [2]: 99/1
Compound: N#CCc1ccc2ccccc2c1 [2-naphthylacetonitrile]

Compound: CCc1ccc2ccccc2c1 [2-ethylnaphthalene]
ratio (A/B) [2]: 66/33^a

ratio (A/B) [2]: 94/6
Compound: CC(=O)Oc1ccc2ccccc2c1 [2-naphthyl acetate]

Compound: N#CCC#N [malononitrile]
ratio (A/B) [2]: >99/1

ratio (A/B) [2]: >99/1
Compound: O=C(O)Cc1ccc2ccccc2c1 [2-naphthylacetic acid]

ratio of 2a (A/B) ([3]; side A MeCN, side B MeCN): 99/1 | ratio of 2a (A/B) ([3]; side A MeCN, side B MeOH): >99/1 | ratio of 2a (A/B) ([3]; side A MeCN, side B THF): >99/1 | ratio of 2a (A/B) ([3]; side A MeOH, side B MeCN): 99/1 | ratio of 2a (A/B) ([3]; side A MeOH, side B MeOH): 99/1 | ratio of 2a (A/B) ([3]; side A MeOH, side B THF): 96/4 | ratio of 2a (A/B) ([3]; side A THF, side B MeOH): 97/3 | ratio of 2a (A/B) ([3]; side A THF, side B THF): 90/10 | ratio (A/B) [2]: 99/1 | presence in P-phase by TLC or 1H NMR ([4]; after 1d, 1/1 mixture with 1g in acetonitrile S-phase): not detected
Compound: OCCc1ccc2ccccc2c1 [2a, 2-(2-naphthyl)ethanol]

Compound: CC(C)[Si](CCC(F)(F)C(F)(F)C(F)(F)C(F)(F)C(F)(F)C(F)(F)C(F)(F)C(F)(F)F)(OCC=Cc1ccccc1)C(C)C [1g, (3,3,4,4,5,5,5,6,6,7,7,8,8,9,9,10,10,10,10-heptadecafluorodecyl)-diisopropyl(3-phenyl-allyloxy)silane]
Mass of the residue (P-phase) ([4]; P-phase removed at 3 h, 1/1 mixture of 2a and 1g in acetonitrile S-phase): 4.5 mg | Mass of the residue (P-phase) ([4]; P-phase removed at 7 h, fresh acetonitrile after each removal): 6 mg | Mass of the residue (P-phase) ([4]; P-phase removed at 24 h, fresh acetonitrile after each removal): 7 mg | Kp (partition coefficient) [1]: 1.3

ratio (A/B) [2]: 99/1
Compound: OCC=Cc1ccccc1 [cinnamyl alcohol]

Compound: CC(C)[Si](CCC(F)(F)C(F)(F)C(F)(F)C(F)(F)C(F)(F)C(F)(F)F)(OCCc1ccc2ccccc2c1)C(C)C [1c, Diisopropyl-1H,1H,2H,2H-perfluorooctanylsilyl 2-naphthylethyl ether]
Kp (partition coefficient) [1]: 0.39

Compound: p-toluenesulfonate
transport through the fluorous phase to the P-phase [5]: no transport

ratio (A/B) [2]: 82/18
Compound: CC(N)c1cccc2ccccc12 (stereo not shown) [1-(1-naphthyl)ethylamine]

ratio (A/B) [2]: 96/4
Compound: CCCCCCCCCCCCO [dodecanol]

Compound: CC(C)[Si](CCC(F)(F)C(F)(F)C(F)(F)C(F)(F)C(F)(F)C(F)(F)C(F)(F)C(F)(F)F)(OCCc1ccc2ccccc2c1)C(C)C [1a, diisopropyl-1H,1H,2H,2H-perfluorodecanylsilyl 2-naphthylethyl ether]
partition coefficient (FC-72 / CH2Cl2, 23 C): 0.14 | partition coefficient (FC-72 / DMF, 23 C): 0.38 | partition coefficient (FC-72 / EtOH, 23 C): 0.91 | partition coefficient (FC-72 / MeCN, 23 C): 0.74 | partition coefficient (FC-72 / MeOH, 23 C): 0.92 | partition coefficient (FC-72 / THF, 23 C): 0.04 | Kp (partition coefficient) [1]: 0.92

Compound: CC(=O)Cc1ccc2ccccc2c1 [2-naphthylacetone]
ratio (A/B) [2]: 91/9
